Assay results taken from patent US20050112573A1, “Method of detecting toxic substance” (priority 2001, published 2005).

Test system: yeast genes (level of expressed mRNA)
Assay: DNA chip analysis of expressed mRNA of yeast genes after 2 h culture with a toxic chemical substance
Format: cell-based, Saccharomyces cerevisiae S288C
Description: Yeast (Saccharomyces cerevtisiae S288C (α SUC2mal mel gap2 CUP1)) were cultured at 25° C. on YPD medium (yeast extract 1%, polypepton 2%, glucose 2%). One of toxic chemical substances was added to the cell at logarithmic growth phase, and the cell was further cultured for two hours. Cell was cultured without any chemical substance in the same condition, and was used as control. Concentrations of the chemical substances were defined to inhibit the growth of the yeast but not lead to death.
After the completion of cultivation, the culture was centrifuged to collect the cells. To the cells, sodium acetate buffer (50 mM sodium acetate, 10 mM EDTA, 1% SDS) was added, and the mixture was shaken at 65° C. for five minutes, followed by returning to room temperature, and obtaining the supernatant, which procedure was repeated two times. To the supernatant, ½ amount of a solution of phenol/chloroform was added, and the mixture was centrifuged to give a supernatant, which was added with an equal amount of chloroform, and the mixture was centrifuged to give a supernatant. To the supernatant, an equal amount of isopropanol containing 0.3 M sodium acetate was added, and the mixture was allowed to stand at room temperature for 30 minutes, after which the mixture was centrifuged to give a sediment of the whole RNAs. Seventy % ethanol was added to the sediment, and the mixture was again centrifuged to give a sediment, which was then dried and dissolved in water. mRNA was isolated from the whole RNAs as followings. In view of the fact that a poly A chain is attached to the 3′ terminus of mRNA, a polynucleotide having a poly T structure which was immobilized on the surface of latex beads was used to trap the mRNA, and then the mRNA was washed and eluted with spine column (Oligotex-dT30<Super>mRNA Purification Kit, Takara). Reverse transcription of the mRNA was conducted with a reverse transcriptase (Super Script II Reverse Transcriptase; catalogue No. 18064-014, GibcoBRL) using fluorescence-labeled nucleotides to give cDNAs that were introduced with Cy3-dUTP or Cy5-dUTP during the reverse transcription.
The labeled cDNAs were dissolved in TE buffer (10 mM Tris-HCl/1 mM EDTA, pH8.0), and the solution was dropped on the DNA chip containing the whole genes of yeast (DNA Chip Research Inc. Japan) so that the cDNAs were hybridized on the DNA chip at 65° C. for over 12 hours. The fluoresces intensity of the DNA chip was read with a scanner, and the ratio relative to the fluorescence intensity resulting from the absence of chemical substance was estimated as the following, which is shown in Tables 1 to 9: [formula]
In the Tables, “Intensity” indicated in the rightmost column is a value of the level of expressed mRNA of each gene in control cells as divided by the average level of the expressions of the whole genes.

## HgCl2 [(3)]
Yeast gene YAL053W, ratio to control without chemical
  The level of expressed mRNA in the presence of chemical substance/: 1.3
Yeast gene YAR010C
  The level of expressed mRNA in the presence of chemical substance/The level of expressed mRNA in the absence of chemical substance: 1.2
Yeast gene YBL005W-A
  The level of expressed mRNA in the presence of chemical substance/The level of expressed mRNA in the absence of chemical substance: 0.5
Yeast gene YBL041W
  The level of expressed mRNA in the presence of chemical substance/The level of expressed mRNA in the absence of chemical substance: 0.9
Yeast gene YBL043W
  The level of expressed mRNA in the presence of chemical substance/The level of expressed mRNA in the absence of chemical substance: 1.1
Yeast gene YBL048W, ratio to control without chemical substance, 2 h culture
  The level of expressed mRNA in the presence of chemical substance/: 2.3
Yeast gene YBL078C
  The level of expressed mRNA in the presence of chemical substance/The level of expressed mRNA in the absence of chemical substance: 1.3
Yeast gene YBL107C, ratio to control without chemical substance, 2 h culture
  The level of expressed mRNA in the presence of chemical substance/: 0.4
Yeast gene YBR036C
  The level of expressed mRNA in the presence of chemical substance/in the absence of chemical substance: 1.8
Yeast gene YBR214W
  The level of expressed mRNA in the presence of chemical substance/The level of expressed mRNA in the absence of chemical substance: 5.7
Yeast gene YBR298C
  The level of expressed mRNA in the presence of chemical substance/in the absence of chemical substance: 1.6
Yeast gene YCL020W
  The level of expressed mRNA in the presence of chemical substance/The level of expressed mRNA in the absence of chemical substance: 0.5
Yeast gene YCL027W
  The level of expressed mRNA in the presence of chemical substance/The level of expressed mRNA in the absence of chemical substance: 1.0
Yeast gene YCR004C
  The level of expressed mRNA in the presence of chemical substance/The level of expressed mRNA in the absence of chemical substance: 12.0
Yeast gene YCR071C
  The level of expressed mRNA in the presence of chemical substance/The level of expressed mRNA in the absence of chemical substance: 0.9
Yeast gene YCR088W
  The level of expressed mRNA in the presence of chemical substance/The level of expressed mRNA in the absence of chemical substance: 1.2
Yeast gene YDL008W
  The level of expressed mRNA in the presence of chemical substance/The level of expressed mRNA in the absence of chemical substance: 1.0
Yeast gene YDL072C, ratio to control without chemical
  The level of expressed mRNA in the presence of chemical substance/: 3.5
Yeast gene YDL078C
  The level of expressed mRNA in the presence of chemical substance/in the absence of chemical substance: 1.2
Yeast gene YDL204W, ratio to control without chemical
  The level of expressed mRNA in the presence of chemical substance/: 4.8
Yeast gene YDL215C
  The level of expressed mRNA in the presence of chemical substance/in the absence of chemical substance: 1.0
Yeast gene YDL222C, ratio to control without chemical
  The level of expressed mRNA in the presence of chemical substance/: 1.5
Yeast gene YDL238C
  The level of expressed mRNA in the presence of chemical substance/The level of expressed mRNA in the absence of chemical substance: 1.1
Yeast gene YDR055W
  The level of expressed mRNA in the presence of chemical substance/The level of expressed mRNA in the absence of chemical substance: 2.2
Yeast gene YDR084C
  The level of expressed mRNA in the presence of chemical substance/The level of expressed mRNA in the absence of chemical substance: 1.5
Yeast gene YDR085C
  The level of expressed mRNA in the presence of chemical substance/The level of expressed mRNA in the absence of chemical substance: 1.6
Yeast gene YDR104C
  The level of expressed mRNA in the presence of chemical substance/The level of expressed mRNA in the absence of chemical substance: 1.2
Yeast gene YDR115W
  The level of expressed mRNA in the presence of chemical substance/The level of expressed mRNA in the absence of chemical substance: 0.6
Yeast gene YDR259C
  The level of expressed mRNA in the presence of chemical substance/The level of expressed mRNA in the absence of chemical substance: 0.4
Yeast gene YDR297W
  The level of expressed mRNA in the presence of chemical substance/in the absence of chemical substance: 0.8
Yeast gene YDR315C
  The level of expressed mRNA in the presence of chemical substance/The level of expressed mRNA in the absence of chemical substance: 1.0
Yeast gene YDR330W, ratio to control without chemical substance, 2 h culture
  The level of expressed mRNA in the presence of chemical substance/: 1.2
Yeast gene YDR358W
  The level of expressed mRNA in the presence of chemical substance/The level of expressed mRNA in the absence of chemical substance: 0.7
Yeast gene YDR387C
  The level of expressed mRNA in the presence of chemical substance/in the absence of chemical substance: 1.2
Yeast gene YDR388W
  The level of expressed mRNA in the presence of chemical substance/The level of expressed mRNA in the absence of chemical substance: 1.2
Yeast gene YDR411C, ratio to control without chemical substance, 2 h culture
  The level of expressed mRNA in the presence of chemical substance/: 1.8
Yeast gene YDR432W
  The level of expressed mRNA in the presence of chemical substance/The level of expressed mRNA in the absence of chemical substance: 1.0
Yeast gene YDR481C
  The level of expressed mRNA in the presence of chemical substance/The level of expressed mRNA in the absence of chemical substance: 1.3
Yeast gene YDR510W
  The level of expressed mRNA in the presence of chemical substance/The level of expressed mRNA in the absence of chemical substance: 1.5
Yeast gene YDR511W, ratio to control without chemical substance, 2 h culture
  The level of expressed mRNA in the presence of chemical substance/: 0.9
Yeast gene YDR545W, ratio to control without chemical substance, 2 h culture
  The level of expressed mRNA in the presence of chemical substance/: 0.6
Yeast gene YEL001C, ratio to control without chemical
  The level of expressed mRNA in the presence of chemical substance/: 1.4
Yeast gene YEL042W
  The level of expressed mRNA in the presence of chemical substance/The level of expressed mRNA in the absence of chemical substance: 1.7
Yeast gene YEL066W
  The level of expressed mRNA in the presence of chemical substance/The level of expressed mRNA in the absence of chemical substance: 1.5
Yeast gene YER004W, ratio to control without chemical substance, 2 h culture
  The level of expressed mRNA in the presence of chemical substance/: 1.9
Yeast gene YER035W, ratio to control without chemical substance, 2 h culture
  The level of expressed mRNA in the presence of chemical substance/: 1.6
Yeast gene YER039C
  The level of expressed mRNA in the presence of chemical substance/The level of expressed mRNA in the absence of chemical substance: 1.0
Yeast gene YER079W, ratio to control without chemical substance, 2 h culture
  The level of expressed mRNA in the presence of chemical substance/: 1.9
Yeast gene YER106W, ratio to control without chemical
  The level of expressed mRNA in the presence of chemical substance/: 1.3
Yeast gene YER107C
  The level of expressed mRNA in the presence of chemical substance/The level of expressed mRNA in the absence of chemical substance: 1.0
Yeast gene YER130C
  The level of expressed mRNA in the presence of chemical substance/The level of expressed mRNA in the absence of chemical substance: 0.5
Yeast gene YER158C, ratio to control without chemical substance, 2 h culture
  The level of expressed mRNA in the presence of chemical substance/: 0.9
Yeast gene YER163C, ratio to control without chemical substance, 2 h culture
  The level of expressed mRNA in the presence of chemical substance/: 1.2
Yeast gene YER175C, ratio to control without chemical substance, 2 h culture
  The level of expressed mRNA in the presence of chemical substance/: 1.3
Yeast gene YFL006W, ratio to control without chemical substance, 2 h culture
  The level of expressed mRNA in the presence of chemical substance/: 1.6
